Key:
[1] = Chemopreventive index, ratio of IC50 for mouse Hepa-1c1c7 cells to drug level required to double NADPH:quinone reductase activity in mouse Hepa-1c1c7 cells
[2] = Cytotoxicity against mouse Hepa1c1c7 cells; format: cell-based; details: Hepa-1c1c7
[3] = biological target: NAD(P)H dehydrogenase [quinone] 1 (Mus musculus) (UniProt Q64669); details: Hepa1c1c7, filed as activator
Chain of NAD(P)H dehydrogenase [quinone] 1 (Mus musculus) (Q64669 whole entry): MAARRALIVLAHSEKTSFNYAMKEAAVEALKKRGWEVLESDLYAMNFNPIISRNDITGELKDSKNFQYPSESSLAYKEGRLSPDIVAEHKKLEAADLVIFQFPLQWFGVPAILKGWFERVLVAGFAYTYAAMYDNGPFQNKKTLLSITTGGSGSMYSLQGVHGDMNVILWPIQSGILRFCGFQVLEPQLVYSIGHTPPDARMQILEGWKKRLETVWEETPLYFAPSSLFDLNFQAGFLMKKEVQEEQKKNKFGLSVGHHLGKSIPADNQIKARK
Description: Induction of quinone reductase activity in mouse Hepa1c1c7 cells

| Compound | Ratio [1] | IC50 [2] | CD [3] |
| --- | --- | --- | --- |
| CCCCCC(O)C#CC#CC(O)c1ccc2c(c1)OCO2 (centres undefined) | >28.2 | > 50 µM | – |
| C[S+]([O-])CCCCN=C=S (centres undefined) [SULFORAPHANE] | 29.5 | – | 0.5 µM |

Source: ChEMBL document CHEMBL4715766, “Systemic structure-activity relationship study of phenyl polyyne diols as potential chemopreventive agents” (Bioorg Med Chem Lett, 2016)
